The record followed here is PubChem BioAssay (NCI).

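Dose response: 5 concentrations. Exposure: 48 h. Format: 96-well plates. Endpoint: linear interpolation; highest concentration if not reached. GI50: concentration for 50% inhibition of growth. TGI is the concentration that stops growth completely.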

Among the test systems are CAKI-1 renal; CCRF-CEM leukemia; HCT-15 colon; HOP-62 NSCLC; HOP-92 NSCLC; K-562 leukemia; OVCAR-4 ovarian; SK-MEL-2 melanoma; SN12C renal; U251 CNS.
Holding throughout (test): NCI-60 cell line screen, 48 h

As for `O=C1[C@@H]2C(c3c(Cl)cccc3Cl)=NO[C@@H]2C(=O)N1c1ccc(Cc2ccc(N3C(=O)[C@H]4C(c5c(Cl)cccc5Cl)=NO[C@H]4C3=O)cc2)cc1`, the TGI in the assay on CAKI-1 renal, in the assay with CCRF-CEM leukemia, in the assay on HCT-15 colon, in the assay with HOP-62 NSCLC, with HOP-92 NSCLC and with K-562 leukemia was above 100 µM in each case. In addition, the TGI with OVCAR-4 ovarian, in the assay on SK-MEL-2 melanoma, with SN12C renal and in the assay on U251 CNS was above 100 µM each time.
In the case of `Cc1cccc(NC(=O)c2sc3nc4c(cc3c2N)C(=O)CCC4)c1`, the GI50 in the assay with CAKI-1 renal was 0.368 µM; in the assay on CCRF-CEM leukemia, 2.26 µM; in the assay with HCT-15 colon it was 0.156 µM; with HOP-62 NSCLC, 0.425 µM; in the assay with HOP-92 NSCLC it was 1.8 µM; in the assay with K-562 leukemia it was 0.105 µM. Besides, the GI50 was 0.706 µM in the assay on OVCAR-4 ovarian, 0.266 µM in the assay with SK-MEL-2 melanoma, 0.74 µM in the assay with SN12C renal and 0.316 µM in the assay on U251 CNS. Besides, the TGI in the assay on CAKI-1 renal is above 100 µM; in the assay on CCRF-CEM leukemia, above 100 µM; in the assay with HCT-15 colon, above 100 µM; in the assay with HOP-62 NSCLC, above 43.7 µM; in the assay on HOP-92 NSCLC, above 74.9 µM; with K-562 leukemia it was above 100 µM. Also, the TGI with OVCAR-4 ovarian is 32.5 µM; in the assay on SK-MEL-2 melanoma it was above 54.2 µM; with SN12C renal, above 63.8 µM; in the assay on U251 CNS it was above 34.6 µM.
For `N#CC(C(=O)C(=O)Nc1c(Cl)cccc1Cl)c1ccccc1` (stereo not given), the GI50 in the assay on CAKI-1 renal, in the assay on CCRF-CEM leukemia, with HCT-15 colon, in the assay with HOP-62 NSCLC, with HOP-92 NSCLC and in the assay with K-562 leukemia was above 100 µM throughout. Besides, the GI50 in the assay with OVCAR-4 ovarian, in the assay with SK-MEL-2 melanoma, in the assay with SN12C renal and with U251 CNS was above 100 µM throughout. In addition, the TGI with CAKI-1 renal, in the assay on CCRF-CEM leukemia, in the assay on HCT-15 colon, with HOP-62 NSCLC, in the assay on HOP-92 NSCLC and with K-562 leukemia was above 100 µM each time. The TGI with OVCAR-4 ovarian, with SK-MEL-2 melanoma, in the assay with SN12C renal and in the assay on U251 CNS was above 100 µM in each case.
On to `N#C/C(=C\c1cc(OCc2ccccc2)c(OCc2ccccc2)cn1)C(N)=O`, for which the TGI with CAKI-1 renal, in the assay with CCRF-CEM leukemia, in the assay on HCT-15 colon, in the assay on HOP-62 NSCLC, in the assay with HOP-92 NSCLC and in the assay on K-562 leukemia was above 100 µM in each case. For the same molecule, the TGI in the assay on OVCAR-4 ovarian, in the assay on SK-MEL-2 melanoma, in the assay on SN12C renal and with U251 CNS was above 100 µM throughout.
On to `NNC(=O)C(=O)N/N=C1/CCCC1C(=O)CCC(=O)Nc1ccc(Cl)cc1` (stereo not given), for which the TGI with CAKI-1 renal, with CCRF-CEM leukemia, with HCT-15 colon, with HOP-62 NSCLC, with HOP-92 NSCLC and with K-562 leukemia was above 100 µM each time. Also, the TGI in the assay with OVCAR-4 ovarian, in the assay with SK-MEL-2 melanoma, in the assay with SN12C renal and with U251 CNS was above 100 µM throughout.
`O=c1c2ccccc2sc2c(CO)ccc(NCCN3CCCCC3)c12`: the TGI turned out to be 13.3 µM with CAKI-1 renal; 3.99 µM in the assay with CCRF-CEM leukemia; 14 µM in the assay with HCT-15 colon; 14.6 µM with HOP-62 NSCLC; 20.9 µM with HOP-92 NSCLC; 5.36 µM in the assay with K-562 leukemia. Also, the TGI in the assay with OVCAR-4 ovarian was determined as 9.46 µM; in the assay on SK-MEL-2 melanoma it was 14.5 µM; in the assay with SN12C renal, 15.6 µM; with U251 CNS it was 14.2 µM.
Regarding `CC1(C)N=C(N)N=C(N)N1c1ccc(CCC(=O)Nc2ccc(S(=O)(=O)F)cc2)cc1`, the GI50 was 2.33 µM in the assay on CAKI-1 renal; 0.73 µM in the assay on CCRF-CEM leukemia; 3.48 µM with HCT-15 colon; 8.62 µM in the assay with HOP-62 NSCLC; 5.31 µM with HOP-92 NSCLC; 0.533 µM with K-562 leukemia. In addition, the GI50 in the assay on OVCAR-4 ovarian was above 78.5 µM; in the assay on SK-MEL-2 melanoma, 26.4 µM; in the assay with SN12C renal, 1.59 µM; in the assay on U251 CNS it was 2.01 µM. Further, the TGI in the assay on CAKI-1 renal, in the assay with CCRF-CEM leukemia, in the assay on HCT-15 colon, with HOP-62 NSCLC, in the assay on HOP-92 NSCLC and in the assay on K-562 leukemia was above 100 µM throughout. The TGI in the assay on OVCAR-4 ovarian, in the assay on SK-MEL-2 melanoma, with SN12C renal and in the assay with U251 CNS was above 100 µM in each case.
Take `COc1ccc2c(c1)C(=O)c1c-2c(Nc2ccccc2OC)nc2ccccc12`: the GI50 was above 100 µM in the assay on CAKI-1 renal; above 100 µM in the assay with CCRF-CEM leukemia; above 100 µM in the assay on HCT-15 colon; above 100 µM with HOP-62 NSCLC; 26.4 µM with HOP-92 NSCLC; above 100 µM with K-562 leukemia. Further, the GI50 is 50.5 µM in the assay on OVCAR-4 ovarian, above 100 µM in the assay with SK-MEL-2 melanoma, 42.1 µM in the assay on SN12C renal and 83.2 µM with U251 CNS. Also, the TGI in the assay with CAKI-1 renal, in the assay on CCRF-CEM leukemia, in the assay with HCT-15 colon, with HOP-62 NSCLC, with HOP-92 NSCLC and with K-562 leukemia was above 100 µM each time. In addition, the TGI in the assay on OVCAR-4 ovarian, in the assay with SK-MEL-2 melanoma, in the assay on SN12C renal and in the assay with U251 CNS was above 100 µM each time.
In the case of `Cc1ccc2c(c1)CN1c3ccc(C)cc3CN2C1c1ccccc1O`, the TGI in the assay with CAKI-1 renal, in the assay on CCRF-CEM leukemia, in the assay on HCT-15 colon, in the assay on HOP-62 NSCLC, in the assay with HOP-92 NSCLC and in the assay on K-562 leukemia was above 100 µM each time. Also, the TGI in the assay with OVCAR-4 ovarian, in the assay on SK-MEL-2 melanoma, with SN12C renal and in the assay with U251 CNS was above 100 µM each time.
